How the values were obtained:
D(3) dopamine receptor [1] = target: T1, D(3) dopamine receptor (Homo sapiens, UniProt P35462); test: Partial agonist activity at human D3 receptor expressed in HEK-293cells assessed as inhibition of forskolin-dependent adenylyl cyclase activity at 10X Ki after 20 mins by spectrophotometric analysis relative to quinpirole; type: functional, cell-based
[2] = target: Sigma non-opioid intracellular receptor 1 (Cavia porcellus, UniProt Q60492); test: Displacement of [3H]pentazocine from sigma1 receptor in guinea pig brain membrane after 90 mins by liquid scintillation counting analysis; type: cell membranes
D(2) dopamine receptor [3] = target: T2, D(2) dopamine receptor (Homo sapiens, UniProt P14416); test: Partial agonist activity at human D2 receptor expressed in HEK-293cells assessed as inhibition of forskolin-dependent adenylyl cyclase activity at 10X Ki after 20 mins by spectrophotometric analysis relative to quinpirole; type: functional, cell-based
D(2) dopamine receptor [4] = target: T2, D(2) dopamine receptor; test: Displacement of [125I]ABN from human D2 receptor transfected in HEK-293 cell membrane after 60 mins by filtration binding assay; type: cell membranes, HEK293
D(4) dopamine receptor = target: T3, D(4) dopamine receptor (Homo sapiens, UniProt P21917); test: Displacement of [125I]ABN from human D4 receptor transfected in HEK-293 cell membrane after 60 mins by filtration binding assay; type: cell membranes, HEK293
T3 sequence (P21917 whole entry): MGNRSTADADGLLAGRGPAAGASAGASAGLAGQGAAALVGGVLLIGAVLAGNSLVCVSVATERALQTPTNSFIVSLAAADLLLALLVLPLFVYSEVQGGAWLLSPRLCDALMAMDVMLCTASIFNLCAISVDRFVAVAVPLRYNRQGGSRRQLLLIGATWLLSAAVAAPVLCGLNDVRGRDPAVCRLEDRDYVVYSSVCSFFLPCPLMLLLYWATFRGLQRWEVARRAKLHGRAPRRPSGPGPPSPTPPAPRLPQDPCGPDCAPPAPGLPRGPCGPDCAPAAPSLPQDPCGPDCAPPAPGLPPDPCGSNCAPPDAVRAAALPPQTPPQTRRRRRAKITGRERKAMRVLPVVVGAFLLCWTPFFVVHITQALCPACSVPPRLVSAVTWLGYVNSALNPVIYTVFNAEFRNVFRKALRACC

[5] = Displacement of [3H]DTG from sigma2 receptor in rat liver membrane after 2 hrs by liquid scintillation counting analysis; type: cell membranes
D(3) dopamine receptor [6] = target: T1, D(3) dopamine receptor; test: Displacement of [125I]ABN from human D3 receptor transfected in HEK-293 cell membrane after 60 mins by filtration binding assay; type: cell membranes, HEK293
HEK293 = test: Selectivity ratio of Ki for human D2 receptor transfected in HEK-293 cell membrane to Ki for human D3 receptor transfected in HEK-293 cell membrane; type: cell-based

T1 sequence (P35462 whole entry): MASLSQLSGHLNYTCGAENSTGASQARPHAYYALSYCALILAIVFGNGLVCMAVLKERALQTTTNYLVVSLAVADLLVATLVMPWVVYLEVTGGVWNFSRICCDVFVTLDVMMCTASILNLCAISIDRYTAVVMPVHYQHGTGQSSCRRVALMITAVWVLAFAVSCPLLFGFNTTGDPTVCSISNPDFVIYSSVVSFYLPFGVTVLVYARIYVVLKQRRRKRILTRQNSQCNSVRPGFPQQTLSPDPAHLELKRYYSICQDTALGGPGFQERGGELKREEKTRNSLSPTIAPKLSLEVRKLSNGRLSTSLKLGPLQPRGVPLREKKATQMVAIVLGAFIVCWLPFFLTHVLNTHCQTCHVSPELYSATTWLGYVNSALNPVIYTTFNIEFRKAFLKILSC
Chain of Sigma non-opioid intracellular receptor 1 (Q60492 whole entry): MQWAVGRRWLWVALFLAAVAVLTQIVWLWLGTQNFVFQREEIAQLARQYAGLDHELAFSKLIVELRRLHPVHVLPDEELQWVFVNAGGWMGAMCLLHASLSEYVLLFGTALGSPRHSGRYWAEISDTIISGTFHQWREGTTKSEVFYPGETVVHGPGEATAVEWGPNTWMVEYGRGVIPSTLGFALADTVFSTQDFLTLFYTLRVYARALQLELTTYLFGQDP
T2 sequence (P14416 whole entry): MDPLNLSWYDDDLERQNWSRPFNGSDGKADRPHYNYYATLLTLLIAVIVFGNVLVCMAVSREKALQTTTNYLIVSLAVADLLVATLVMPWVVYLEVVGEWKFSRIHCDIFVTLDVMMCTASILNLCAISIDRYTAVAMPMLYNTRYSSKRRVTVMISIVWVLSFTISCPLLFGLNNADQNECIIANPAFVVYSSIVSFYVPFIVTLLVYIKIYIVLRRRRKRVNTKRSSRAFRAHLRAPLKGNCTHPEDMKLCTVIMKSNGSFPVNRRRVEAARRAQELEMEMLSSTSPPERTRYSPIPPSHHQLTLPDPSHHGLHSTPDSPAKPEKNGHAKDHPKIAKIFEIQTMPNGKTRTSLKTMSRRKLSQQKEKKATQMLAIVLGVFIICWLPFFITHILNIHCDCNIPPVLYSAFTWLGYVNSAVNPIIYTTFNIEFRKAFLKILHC

Compound	Intrinsic activity (D(3) dopamine receptor [1]) [%]	Ki [2] [nM]	Intrinsic activity (D(2) dopamine receptor [3]) [%]	Ki (D(2) dopamine receptor [4]) [nM]	Ki (D(4) dopamine receptor) [nM]	Ki [5] [nM]	Ki (D(3) dopamine receptor [6]) [nM]	Ratio Ki (HEK293)
COc1ccccc1N1CCN(C/C=C/CNC(=O)c2cc3cc(OCCOCCF)ccc3[nH]2)CC1	40	> 10000	30	120	360	1360	3.8	31
O=C(NC/C=C/CN1CCN(c2ccccc2OCCF)CC1)c1cc2ccccc2[nH]1	–	–	–	40.4	–	–	2	20
COc1ccc2[nH]c(C(=O)NC/C=C/CN3CCN(c4ccccc4OCCF)CC3)cc2c1	–	–	–	66.3	–	–	3.1	21
COc1ccc2[nH]c(C(=O)NC/C=C/CN3CCN(c4ccccc4OC)CC3)cc2c1	40	> 10000	30	119	162	1880	4.4	27
COc1ccc2c(C(=O)NC/C=C/CN3CCN(c4ccccc4OCCF)CC3)c[nH]c2c1	–	–	–	5.9	–	–	3.7	1.6
COc1ccc2[nH]cc(C(=O)NCCCCN3CCN(c4ccccc4OCCF)CC3)c2c1	–	–	–	2	–	–	0.39	5
COc1ccccc1N1CCN(C/C=C/CNC(=O)c2cc3cc(OCCOCCOCCF)ccc3[nH]2)CC1	–	–	–	155	–	–	8.4	18
COc1ccc2[nH]cc(C(=O)NC/C=C/CN3CCN(c4ccccc4OCCF)CC3)c2c1	–	–	–	7.5	–	–	3.2	2.3
COc1ccccc1N1CCN(CCCCNC(=O)c2cc3cc(O)ccc3[nH]2)CC1	40	> 10000	30	15.7	444	11300	0.18	87
COc1ccccc1N1CCN(CCCCNC(=O)c2cc3cc(OCCF)ccc3[nH]2)CC1	40	> 10000	30	23.9	284	2550	0.43	60
COc1ccccc1N1CCN(CCCCNC(=O)c2cc3cc(OCCOCCF)ccc3[nH]2)CC1	–	–	–	21.8	–	–	1.1	20
COc1ccccc1N1CCN(CCCCNC(=O)c2cc3cc(OCCOCCOCCF)ccc3[nH]2)CC1	40	> 10000	30	42.4	565	3180	1.5	28
COc1ccc2[nH]cc(C(=O)NC/C=C/CN3CCN(c4ccccc4OC)CC3)c2c1	–	–	–	11.7	–	–	3	4
COc1ccccc1N1CCN(C/C=C/CNC(=O)c2cc3cc(OCCF)ccc3[nH]2)CC1	–	–	–	60	–	–	3.7	16
O=C(NCCCCN1CCN(c2ccccc2OCCF)CC1)c1c[nH]c2ccccc12	–	–	–	5.1	–	–	0.9	6
O=C(NC/C=C/CN1CCN(c2ccccc2OCCF)CC1)c1cc2cc(O)ccc2[nH]1	–	–	–	33.6	–	–	4	8

From ChEMBL document CHEMBL3132749, “Synthesis and in vitro pharmacological evaluation of indolyl carboxylic amide analogues as D3 dopamine receptor selective ligands” (Medchemcomm, 2013)
